Experimental data: the NIST ThermoML archive (doi:10.1007/s10765-005-8591-6)

How the values were obtained:
[1] = Fluid (supercritical or subcritical phases), Constant-volume piezometry
[2] = xn = mol fraction of the nth substance listed; settings: Fluid (supercritical or subcritical phases), Constant-volume piezometry, x1 = 1

FCF [difluoromethane]
[1]
Settings	mass density [kg/m3]
313.16 K, 3353.7 kPa	900.17
316.15 K, 4967.1 kPa	899.97
319.15 K, 6571.4 kPa	899.77
322.15 K, 8162.4 kPa	899.57
328.16 K, 11400 kPa	899.19
334.15 K, 14753 kPa	898.82
337.15 K, 16580 kPa	898.63

FCF [difluoromethane] + FC(F)C(F)(F)F
[2]
Settings	mass density [kg/m3]
313.16 K, 3353.7 kPa	900.17
316.15 K, 4967.1 kPa	899.97
319.15 K, 6571.4 kPa	899.77
322.15 K, 8162.4 kPa	899.57
328.16 K, 11400 kPa	899.19
334.15 K, 14753 kPa	898.82
337.15 K, 16580 kPa	898.63

FC(F)C(F)(F)F [pentafluoroethane]
[1]
Settings	mass density [kg/m3]
258.16 K, 4595.6 kPa	1403.78
261.15 K, 6579.8 kPa	1403.47
262.14 K, 7284.6 kPa	1403.36
267.16 K, 10809 kPa	1402.84
270.19 K, 13003 kPa	1402.53
273.15 K, 15076 kPa	1402.23
275.15 K, 16572 kPa	1402.04
